# Read-outs that look alike come from different tables or passages of the source.
# T1: recombinant TgCoq1 (Toxoplasma gondii, UniProt S8EY63)
# T1 sequence (S8EY63 152-676): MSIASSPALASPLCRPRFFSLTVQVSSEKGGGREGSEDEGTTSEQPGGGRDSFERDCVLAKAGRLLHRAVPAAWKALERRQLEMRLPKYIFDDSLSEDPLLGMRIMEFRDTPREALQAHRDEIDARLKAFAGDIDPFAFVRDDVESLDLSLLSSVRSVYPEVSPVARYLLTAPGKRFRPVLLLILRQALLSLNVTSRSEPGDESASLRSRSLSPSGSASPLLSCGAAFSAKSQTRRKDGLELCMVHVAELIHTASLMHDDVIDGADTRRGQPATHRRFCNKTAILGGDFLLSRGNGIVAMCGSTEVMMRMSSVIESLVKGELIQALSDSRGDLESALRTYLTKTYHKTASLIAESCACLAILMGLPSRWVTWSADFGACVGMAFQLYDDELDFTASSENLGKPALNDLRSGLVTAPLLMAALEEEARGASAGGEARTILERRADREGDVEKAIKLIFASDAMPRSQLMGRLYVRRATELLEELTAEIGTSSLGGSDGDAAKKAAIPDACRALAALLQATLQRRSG
# B1: recombinant TgCoq1 (Toxoplasma gondii ME49) (protein)
# chain: MSIASSPALASPLCRPRFFSLTVQVSSEKGGGREGSEDEGTTSEQPGGGRDSFERDCVLAKAGRLLHRAVPAAWKALERRQLEMRLPKYIFDDSLSEDPLLGMRIMEFRDTPREALQAHRDEIDARLKAFAGDIDPFAFVRDDVESLDLSLLSSVRSVYPEVSPVARYLLTAPGKRFRPVLLLILRQALLSLNVTSRSEPGDESASLRSRSLSPSGSASPLLSCGAAFSAKSQTRRKDGLELCMVHVAELIHTASLMHDDVIDGADTRRGQPATHRRFCNKTAILGGDFLLSRGNGIVAMCGSTEVMMRMSSVIESLVKGELIQALSDSRGDLESALRTYLTKTYHKTASLIAESCACLAILMGLPSRWVTWSADFGACVGMAFQLYDDELDFTASSENLGKPALNDLRSGLVTAPLLMAALEEEARGASAGGEARTILERRADREGDVEKAIKLIFASDAMPRSQLMGRLYVRRATELLEELTAEIGTSSLGGSDGDAAKKAAIPDACRALAALLQATLQRRSG
# How the values were obtained:
# T. gondii RH = assay: In vitro growth inhibition of RFP-expressing tachyzoites in hTERT fibroblasts; format: cell-based, Toxoplasma gondii; details: for rescue of growth inhibition by UQ6: 10 μM UQ6 added to the culture; for IC50 / EC50: Toxoplasma gondii, Fibroblast; for IC50: T. gondii growth in vitro; for EC50: T. gondii RH
# Description: (§1) Experiments on T. gondii tachyzoites were carried out using parasites expressing red fluorescent protein (RFP) ([66]) with the modification described by Recher et al. ([67]). Tachyzoites were maintained in human fibroblasts (hTERT cells). For drug testing and growth assays, parasites were purified by passing them through a 25-gauge needle, followed by filtration through a 3-μm filter. Human fibroblasts were cultured in 96-well black-sided plates for 24 h before the addition of 4,000 fluorescent tachyzoites/well. […] The EC50s were calculated using Prism software. The UQ6 experiments were performed using the same protocol as described above. The parasites were supplemented with 10 μM UQ6.
# [1] = test system: T. gondii parental strain (TatiΔku80); assay: Growth inhibition of the parental strain; format: cell-based; details: Toxoplasma gondii, read-out: EC50 (TatiΔku80)
# Description: (§2) Previous work has shown that bisphosphonates can target several enzymes of the isoprenoid biosynthesis pathway, including the farnesyl diphosphate synthase (FPPS), which synthesizes FPP, the preferred substrate of TgCoq1 ([14]). […] We further determined specificity against TgCoq1, by comparing the growth inhibition of the compound against a parental strain (TatiΔku80) versus a cell line overexpressing TgCoq1 (TgCoq1-OE).
# as §1
# [2] = test system: T. gondii TgCoq1-OE strain; assay: Growth inhibition of the TgCoq1 overexpressing strain; format: cell-based; details: Toxoplasma gondii, read-out: EC50 TgCoq1-OE strain
# Description: as §2, §1
# recombinant TgCoq1 [3] = molecular target: T1, recombinant TgCoq1; assay: biochemical
# recombinant TgFPPS = recombinant TgFPPS (Toxoplasma gondii, UniProt Q197X6); assay: biochemical
# Sequence of recombinant TgFPPS (Q197X6 entry or part of it): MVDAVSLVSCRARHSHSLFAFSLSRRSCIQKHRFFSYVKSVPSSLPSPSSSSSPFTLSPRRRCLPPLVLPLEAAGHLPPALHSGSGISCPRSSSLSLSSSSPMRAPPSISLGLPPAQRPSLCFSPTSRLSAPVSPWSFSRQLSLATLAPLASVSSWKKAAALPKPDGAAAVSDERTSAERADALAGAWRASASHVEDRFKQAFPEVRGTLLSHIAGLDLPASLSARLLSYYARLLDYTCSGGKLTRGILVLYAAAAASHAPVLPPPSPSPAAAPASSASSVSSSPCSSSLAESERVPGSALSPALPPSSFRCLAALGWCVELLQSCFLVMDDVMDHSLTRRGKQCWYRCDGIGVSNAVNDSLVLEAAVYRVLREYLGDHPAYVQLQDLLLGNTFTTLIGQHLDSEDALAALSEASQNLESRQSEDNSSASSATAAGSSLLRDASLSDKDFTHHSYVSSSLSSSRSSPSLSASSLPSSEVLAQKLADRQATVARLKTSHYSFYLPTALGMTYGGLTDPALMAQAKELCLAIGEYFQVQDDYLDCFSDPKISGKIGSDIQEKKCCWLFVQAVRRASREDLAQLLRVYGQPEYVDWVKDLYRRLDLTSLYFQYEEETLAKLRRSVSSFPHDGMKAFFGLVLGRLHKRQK
# hTERT cells = assay: Cytotoxicity to hTERT cells (alamarBlue); details: hTERT cells
# Description: The cytotoxicity was tested using an alamarBlue assay as described by Recher et al. ([67]).
# recombinant TgCoq1 [4] = molecular target: T1, recombinant TgCoq1; assay: Kinetic parameters of recombinant TgCoq1 with allylic substrates ([4-14C]IPP incorporation); format: biochemical; details: allylic substrate varied, counter substrate IPP (100 μM)
# Description: (§3) To investigate the biochemical function of TgCoq1, we cloned the TGGT1_269430 gene in an E. coli expression plasmid, which also includes a C-terminal polyhistidine tag to facilitate the purification of the recombinant protein by affinity chromatography. The activity of the purified protein was determined using allylic substrates and cosubstrates, by measuring the amount of [4-^14C]IPP incorporated into butanol-extractable polyprenyl diphosphates (FPP and GGPP) (Fig. 2A). […] A parallel experiment with the already characterized recombinant Trypanosoma cruzi solanesyl diphosphate synthase ([26]), TcSPPS, known to synthesize a 45-carbon product, is shown in the same TLC (Fig. 2B). With the use of a standard enzymatic method ([26]), the kinetic parameters of the reaction were obtained using various concentrations of the allylic substrates (GPP, FPP, GGPP, and IPP) and keeping the concentration of counter substrates at a saturating level (Table 1). Under these experimental conditions, the enzyme was more efficient with FPP than with GGPP (Fig. 2C) or GPP as the substrate (Table 1).
# (§4) Kinetic parameters for the recombinant TgCoq1 were calculated from the activity obtained by varying the concentration of the allylic substrates (GPP, FPP, GGPP, and IPP) and keeping the concentration of counter substrates at a saturating level. The nonlinear regression analysis in Sigma plot 10.0 was used to calculate the Kinetic parameters.
# (§5) For the enzymatic activity, a standard protocol for medium/long-chain prenyl diphosphate synthase was followed as described previously ([26]). The enzyme activity was measured by assessing the amount of [4-^14C]IPP incorporated into butanol-extractable polyprenyl diphosphates. The standard assay mixture contained, in a final volume of 100 μl, Tris-HCl (100 mM, pH 7.4), 100 μM of any of the allylic substrates FPP/GGPP/GPP, 1 mM MgCl2, 1 mM DTT, 1% vol/vol Triton X-100, 100 μM [4-^14C]-IPP (1 μCi/μMol), and 500 ng of purified protein. Reaction mixtures were incubated at 37°C for 30 min unless otherwise indicated. The radioactive prenyl products were extracted with 1-butanol and washed with NaCl-saturated water, and activities were calculated from the DPM values.
# [5] = test system: T. gondii iΔCoq1 (+ATc) mutant; assay: Rescue of the growth defect of the iΔCoq1 (+ATc) mutant by ubiquinones; format: cell-based, Toxoplasma gondii
# Description: To further validate the role of TgCoq1 in the synthesis of ubiquinone, we tested if supplementing cultures of the iΔCoq1 (+ATc) mutant with various ubiquinones would rescue the growth defect (Fig. 7). Because UQ7 is not commercially available, we tested UQ6, UQ8, and UQ10 and observed a remarkable rescue of the growth of the iΔCoq1 (+ATc) mutant by UQ6 (Fig. 7A).
# Experiments on T. gondii tachyzoites were carried out using parasites expressing red fluorescent protein (RFP) ([66]) with the modification described by Recher et al. ([67]). Tachyzoites were maintained in human fibroblasts (hTERT cells). For drug testing and growth assays, parasites were purified by passing them through a 25-gauge needle, followed by filtration through a 3-μm filter. Human fibroblasts were cultured in 96-well black-sided plates for 24 h before the addition of 4,000 fluorescent tachyzoites/well. Fluorescence values were measured for up to 9 days, and both excitation (544 nm) and emission (590 nm) were read from the bottom of the plates in a Molecular Devices plate reader ([46]). The EC50s were calculated using Prism software. The UQ6 experiments were performed using the same protocol as described above. […]
# [6] = substrate: C=C(C)CCO[P@@](=O)(O)OP(=O)(O)O; assay: Kinetic parameters of recombinant TgCoq1 with allylic substrates ([4-14C]IPP incorporation); format: biochemical, Toxoplasma gondii; details: pH 7.4, 37.0 °C
# Description: as §3, §4, §5
# [7] = substrate: CC(C)=CCC/C(C)=C/CC/C(C)=C/CO[P@@](=O)(O)OP(=O)(O)O; assay: as above; format: biochemical, Toxoplasma gondii; details: other: allylic substrate varied, counter substrate IPP (100 μM); pH 7.4; 37.0 °C
# Description: as §3, §4, §5
# [8] = at 4X EC50 (concentration in μM in brackets)
# [9] = at 10X EC50 (concentration in μM in brackets)
# [10] = other: counter substrate FPP (100 μM)
# [11] = other: counter substrate GGPP (50 μM)
# [12] = other: counter substrate GPP (150 μM)
molecule,measurement,setting,value
O=C1C(O)=C([C@H]2CC[C@H](c3ccc(Cl)cc3)CC2)C(=O)c2ccccc21 [Atovaquone],rescue of growth inhibition by UQ6,T. gondii RH,modest rescue
same,EC50,[1],0.03 ± 0.01 µM
same,EC50,[2],0.04 ± 0.01 µM
CCCCCCCCC(O)(P(=O)(O)O)P(=O)(O)O [BPH-252],IC50,recombinant TgCoq1 [3],2.13 ± 0.52 µM
same,IC50,recombinant TgFPPS,0.13 ± 0.05 µM
same,IC50,T. gondii RH,0.85 ± 0.14 µM
CCCCCCCCn1cc[n+](CC(P(=O)([O-])O)P(=O)(O)O)c1 (stereo not drawn) [BPH-1217],% Inhibition (cytotoxicity),hTERT cells; [8],8.01 ± 1.82%
same,% Inhibition (cytotoxicity),hTERT cells; [9],6.19 ± 9.55%
CCCCCCCCCCCCCCn1cc[n+](CC(P(=O)([O-])O)P(=O)(O)O)c1 (stereo not drawn) [BPH-1219],% Inhibition (cytotoxicity),hTERT cells; [8],3.20 ± 2.89%
same,% Inhibition (cytotoxicity),hTERT cells; [9],8.01 ± 1.82%
CCCCCCCCCCCn1cc[n+](CC(O)(P(=O)([O-])O)P(=O)(O)O)c1 (stereo not drawn) [BPH-1236],% Inhibition (cytotoxicity),hTERT cells; [8],4.13 ± 1.20%
same,% Inhibition (cytotoxicity),hTERT cells; [9],9.10 ± 2.38%
CCCCCCCCCn1cc[n+](CC(O)(P(=O)([O-])O)P(=O)(O)O)c1 (stereo not drawn) [BPH-1238],% Inhibition (cytotoxicity),hTERT cells; [8],9.77 ± 1.18%
same,% Inhibition (cytotoxicity),hTERT cells; [9],13.37 ± 6.08%
CCCCCCCCCCCCCCCn1cc[n+](CC(O)(P(=O)([O-])O)P(=O)(O)O)c1 (stereo not drawn) [BPH-1325],IC50,recombinant TgCoq1 [3],1.69 ± 0.46 µM
same,IC50,recombinant TgFPPS,0.7 ± 0.06 µM
same,IC50,T. gondii RH,1.65 ± 0.89 µM
"CC(C)=CCC/C(C)=C/CC/C(C)=C/CC/C(C)=C/COP(=O)(O)OP(=O)(O)O [GGPP, geranylgeranyl diphosphate]",Kcat,recombinant TgCoq1 [4],0.00275 ± 8.3e-05 s⁻¹
same,Km,recombinant TgCoq1 [4],14.1 ± 1.43 µM
same,Vmax,recombinant TgCoq1 [4],82.98 ± 2.51 nmol/min/mg
"CC(C)=CCC/C(C)=C/COP(=O)(O)OP(=O)(O)O [GPP, geranyl diphosphate]",Kcat,recombinant TgCoq1 [4],0.0002 ± 1.7e-05 s⁻¹
same,Km,recombinant TgCoq1 [4],0.88 ± 0.6 µM
same,Vmax,recombinant TgCoq1 [4],6.16 ± 0.45 nmol/min/mg
Cc1[nH]c2c(c(=O)c1-c1ccc(Oc3ccc(OC(F)(F)F)cc3)cc1)CCCC2 [JAG-21],rescue of growth inhibition by UQ6,T. gondii RH,not rescued
same,EC50,"T. gondii RH; with ubiquinone Q6 (10 μM) in the culture, read-out: EC50 + UQ6",0.07 ± 0.001 µM
same,EC50,"T. gondii RH; without UQ6, read-out: EC50",0.049 ± 0.02 µM
same,% Inhibition (cytotoxicity),hTERT cells; [8],6.40 ± 5.50%
same,% Inhibition (cytotoxicity),hTERT cells; [9],5.75 ± 4.98%
CC(C)=CCC/C(C)=C/CNCCNC1C2CC3CC(C2)CC1C3 (stereo not drawn) [SQ109],EC50,[1],1.73 ± 0.38 µM
same,EC50,[2],1.8 ± 0.47 µM
"COC1=C(OC)C(=O)C(C/C=C(\C)CC/C=C(\C)CC/C=C(\C)CC/C=C(\C)CC/C=C(\C)CCC=C(C)C)=C(C)C1=O [UQ6, Ubiquinone Q6]",rescue of growth of the iΔCoq1 mutant with ATc,[5]; 5 μM ubiquinone,rescue
same,rescue of growth of the iΔCoq1 mutant with ATc,[5]; 10 μM ubiquinone,rescued
"COC1=C(OC)C(=O)C(C/C=C(\C)CC/C=C(\C)CC/C=C(\C)CC/C=C(\C)CC/C=C(\C)CC/C=C(\C)CC/C=C(\C)CCC=C(C)C)=C(C)C1=O [UQ8, ubiquinone 8]",rescue of growth of the iΔCoq1 mutant with ATc,[5]; 5 μM ubiquinone,no rescue
"COC1=C(OC)C(=O)C(C/C=C(\C)CC/C=C(\C)CC/C=C(\C)CC/C=C(\C)CC/C=C(\C)CC/C=C(\C)CC/C=C(\C)CC/C=C(\C)CC/C=C(\C)CCC=C(C)C)=C(C)C1=O [UQ10, ubiquinone 10]",rescue of growth of the iΔCoq1 mutant with ATc,[5]; 5 μM ubiquinone,no rescue
B1,Km,[6]; [10],139.11 ± 17.68 µM
same,kcat/Km,[6]; [10],134 M⁻¹ s⁻¹
same,Km,[6]; [11],141.89 ± 35.75 µM
same,kcat/Km,[6]; [11],87.5 M⁻¹ s⁻¹
same,Km,[6]; [12],145.48 ± 1.18 µM
same,kcat/Km,[6]; [12],6.5 M⁻¹ s⁻¹
same,Km,[7],12.37 ± 1.83 µM
same,kcat/Km,[7],609 M⁻¹ s⁻¹

# From publication PMC9600589, “The Heptaprenyl Diphosphate Synthase (Coq1) Is the Target of a Lipophilic Bisphosphonate That Protects Mice against Toxoplasma gondii Infection” (mBio, 2022)
